Assay [1] has as its system HepG-2 human hepatocellular carcinoma cells. The assay can be described thus: MTT assay, proliferation of HepG-2 cells. In kind it is cell-based. The conditions noted are these: Homo sapiens, HepG2, 72 h incubation, mean of three independent experiments. Here is the method: (§1) HepG-2 human hepatocellular carcinoma cells and L-O2 human normal liver cells were maintained in DMEM culture medium supplemented with 10% FBS at 37 °C under a humidified atmosphere with 5% CO2.
(§2) HepG-2 and L-O2 cells in logarithmic growth phase were seeded into a 96-well plate at 5 × 10^3/well/200 µL. After 12 h, compounds at different concentrations were added and incubated for 72 h at 37 °C, 5% CO2. Then, 20 µL MTT (5 mg/mL) was added into each well and incubated for 4 h. The supernatant was discarded, and the precipitate was dissolved with DMSO. The absorbance of the optical density (OD) at 570 nm was detected using a microplate reader and the IC50 was calculated with GraphPad Prism 5.

Assay [2] has as its system L-O2 human normal liver cells. The assay can be described thus: MTT assay, toxicity against L-O2 normal cells. The note with it: Homo sapiens, 72 h incubation, mean of three independent experiments. In kind it is cell-based. Here is the method: as §1, §2

With `CC(=O)OC(C)(C)/C=C/C(=O)[C@](C)(O)C1[C@H](OC(=O)CCC(=O)O)C[C@@]2(C)C3CC=C4C(C[C@H](O)C(=O)C4(C)C)[C@]3(C)C(=O)C[C@]12C` (stereo partly drawn) [Compound 11, 4-(((2S,9R,13R,14S,16R)-17-((R,E)-6-Acetoxy-2-hydroxy-6-methyl-3-oxohept-4-en-2-yl)-2-hydroxy-4,4,9,13,14-pentamethyl-3,11-dioxo-2,3,4,7,8,9,10,11,12,13,14,15,16,17-tetradecahydro-1H-cyclopenta[a]phenanthren-16-yl)oxy)-4-oxobutanoic acid], the IC50 in assay [1] and in assay [2] was greater than 20 µM throughout.
For the compound `CC(=O)OC(C)(C)/C=C/C(=O)[C@](C)(O)C1[C@H](OC(=O)CCC(=O)OCC(C)(C)COc2no[n+]([O-])c2S(=O)(=O)c2ccccc2)C[C@@]2(C)C3CC=C4C(CC(O)C(=O)C4(C)C)[C@]3(C)C(=O)C[C@]12C` (stereo partly drawn) [Compound 10n, 4-(3-((4-(((9R,13R,14S,16R)-17-((R,E)-6-Acetoxy-2-hydroxy-6-methyl-3-oxohept-4-en-2-yl)-2-hydroxy-4,4,9,13,14-pentamethyl-3,11-dioxo-2,3,4,7,8,9,10,11,12,13,14,15,16,17-tetradecahydro-1H-cyclopenta[a]phenanthren-16-yl)oxy)-4-oxobutanoyl)oxy)-2,2-dimethylpropoxy)-3-(phenylsulfonyl)-1,2,5-oxadiazole 2-oxide], the figures for the IC50 in assay [1] and in assay [2] were 1.11 ± 0.22 µM and 3.31 ± 0.18 µM, respectively.
Taken in the same sequence, the figures for `CC(=O)OC(C)(C)/C=C/C(=O)[C@](C)(O)C1[C@H](OC(=O)CCC(=O)OCCCCCCOc2no[n+]([O-])c2S(=O)(=O)c2ccccc2)C[C@@]2(C)C3CC=C4C(CC(O)C(=O)C4(C)C)[C@]3(C)C(=O)C[C@]12C` (stereo partly drawn) [Compound 10e, 4-((6-((4-(((9R,13R,14S,16R)-17-((R,E)-6-Acetoxy-2-hydroxy-6-methyl-3-oxohept-4-en-2-yl)-2-hydroxy-4,4,9,13,14-pentamethyl-3,11-dioxo-2,3,4,7,8,9,10,11,12,13,14,15,16,17-tetradecahydro-1H-cyclopenta[a]phenanthren-16-yl)oxy)-4-oxobutanoyl)oxy)hexyl)oxy)-3-(phenylsulfonyl)-1,2,5-oxadiazole 2-oxide] were 1.15 ± 0.24 µM and 3.21 ± 0.09 µM.
For `CC(=O)OC(C)(C)/C=C/C(=O)[C@](C)(O)C1[C@H](OC(=O)c2ccc(Br)cc2)C[C@@]2(C)C3CC=C4C(C[C@H](O)C(=O)C4(C)C)[C@]3(C)C(=O)C[C@]12C` (stereo partly drawn) [Compound 3k, (2S,9R,13R,14S,16R)-17-((R,E)-6-Acetoxy-2-hydroxy-6-methyl-3-oxohept-4-en-2-yl)-2-hydroxy-4,4,9,13,14-pentamethyl-3,11-dioxo-2,3,4,7,8,9,10,11,12,13,14,15,16,17-tetradecahydro-1H-cyclopenta[a]phenanthren-16-yl 4-bromobenzoate], in that order: 2.99 ± 2.06 µM and 1.93 ± 0.32 µM.
For `CC(=O)OC(C)(C)/C=C/C(=O)[C@](C)(O)C1[C@H](OC(=O)CCCCNC(=O)OC(C)(C)C)C[C@@]2(C)C3CC=C4C(C[C@H](O)C(=O)C4(C)C)[C@]3(C)C(=O)C[C@]12C` (stereo partly drawn) [Compound 3d, (2S,9R,13R,14S,16R)-17-((R,E)-6-Acetoxy-2-hydroxy-6-methyl-3-oxohept-4-en-2-yl)-2-hydroxy-4,4,9,13,14-pentamethyl-3,11-dioxo-2,3,4,7,8,9,10,11,12,13,14,15,16,17-tetradecahydro-1H-cyclopenta[a]phenanthren-16-yl 5-((tert-butoxycarbonyl)amino)pentanoate], in that order: 4.89 ± 0.92 µM and 8.01 ± 0.47 µM.
With `CC(=O)OC(C)(C)/C=C/C(=O)[C@](C)(O)C1[C@H](OC(=O)CCC(=O)OCCCCCCCCOc2no[n+]([O-])c2S(=O)(=O)c2ccccc2)C[C@@]2(C)C3CC=C4C(CC(O)C(=O)C4(C)C)[C@]3(C)C(=O)C[C@]12C` (stereo partly drawn) [Compound 10g, 4-((8-((4-(((9R,13R,14S,16R)-17-((R,E)-6-Acetoxy-2-hydroxy-6-methyl-3-oxohept-4-en-2-yl)-2-hydroxy-4,4,9,13,14-pentamethyl-3,11-dioxo-2,3,4,7,8,9,10,11,12,13,14,15,16,17-tetradecahydro-1H-cyclopenta[a]phenanthren-16-yl)oxy)-4-oxobutanoyl)oxy)octyl)oxy)-3-(phenylsulfonyl)-1,2,5-oxadiazole 2-oxide], the figures for the IC50 in assay [1] and in assay [2] were 1.19 ± 0.55 µM and 4.29 ± 0.66 µM, respectively.
For `COc1cc(/C=C/C(=O)O[C@@H]2C[C@@]3(C)C4CC=C5C(C[C@H](O)C(=O)C5(C)C)[C@]4(C)C(=O)C[C@]3(C)C2[C@@](C)(O)C(=O)/C=C/C(C)(C)OC(C)=O)cc(OC)c1` (stereo partly drawn) [Compound 3q, (2S,9R,13R,14S,16R)-17-((R,E)-6-Acetoxy-2-hydroxy-6-methyl-3-oxohept-4-en-2-yl)-2-hydroxy-4,4,9,13,14-pentamethyl-3,11-dioxo-2,3,4,7,8,9,10,11,12,13,14,15,16,17-tetradecahydro-1H-cyclopenta[a]phenanthren-16-yl (E)-3-(3,5-dimethoxyphenyl)acrylate], in that order: 3.85 ± 0.63 µM and 5.25 ± 1.63 µM.
Consider `CC(=O)OC(C)(C)/C=C/C(=O)[C@](C)(O)C1[C@H](OC(=O)c2ccc(C)cc2)C[C@@]2(C)C3CC=C4C(C[C@H](O)C(=O)C4(C)C)[C@]3(C)C(=O)C[C@]12C` (stereo partly drawn) [Compound 3h, (2S,9R,13R,14S,16R)-17-((R,E)-6-Acetoxy-2-hydroxy-6-methyl-3-oxohept-4-en-2-yl)-2-hydroxy-4,4,9,13,14-pentamethyl-3,11-dioxo-2,3,4,7,8,9,10,11,12,13,14,15,16,17-tetradecahydro-1H-cyclopenta[a]phenanthren-16-yl 4-methylbenzoate], for which the IC50 in assay [1] is 9.62 ± 1.34 µM; in assay [2], 6.9 ± 1.37 µM.
Taken in the same sequence, the figures for `CC(=O)OC(C)(C)/C=C/C(=O)[C@](C)(O)C1[C@H](OC(=O)c2ccc(F)cc2)C[C@@]2(C)C3CC=C4C(C[C@H](O)C(=O)C4(C)C)[C@]3(C)C(=O)C[C@]12C` (stereo partly drawn) [Compound 3i, (2S,9R,13R,14S,16R)-17-((R,E)-6-Acetoxy-2-hydroxy-6-methyl-3-oxohept-4-en-2-yl)-2-hydroxy-4,4,9,13,14-pentamethyl-3,11-dioxo-2,3,4,7,8,9,10,11,12,13,14,15,16,17-tetradecahydro-1H-cyclopenta[a]phenanthren-16-yl 4-fluorobenzoate] were 7.42 ± 0.4 µM and 4.42 ± 0.97 µM.
Regarding `CC(=O)OC(C)(C)/C=C/C(=O)[C@](C)(O)C1[C@H](OC(=O)c2cccc(F)c2)C[C@@]2(C)C3CC=C4C(C[C@H](O)C(=O)C4(C)C)[C@]3(C)C(=O)C[C@]12C` (stereo partly drawn) [Compound 3n, (2S,9R,13R,14S,16R)-17-((R,E)-6-Acetoxy-2-hydroxy-6-methyl-3-oxohept-4-en-2-yl)-2-hydroxy-4,4,9,13,14-pentamethyl-3,11-dioxo-2,3,4,7,8,9,10,11,12,13,14,15,16,17-tetradecahydro-1H-cyclopenta[a]phenanthren-16-yl 3-fluorobenzoate], the IC50 is 4.05 ± 1.39 µM in assay [1] and 2.48 ± 0.52 µM in assay [2].

Source of the values: PMC6321601 (Molecules, 2018).
